Measurements taken from patent US20240399360A1, “DEVICES AND METHODS FOR CREATING TRANSCELLULAR PORES” (Georgia Tech Research Corporation, priority 2023, published 2024).
Entries after “also recorded” stand apart in the source; their conditions may differ.

Assays:
Assay type in all cases: cell-based, human
phSC cells [1] = assay: Particle-induced transcellular pore formation, fluorescent pore-label assay, cells seeded above microparticles
Protocol: Substrate preparation and cell culture for transcellular pore formation using microparticles: Round cover glasses (12 mm in diameter) were employed for SEM imaging, while 16-well chambered cover glasses (16 wells per cover glass; Invitrogen C37000) were utilized for other experiments. Glass substrates underwent plasma treatment (Harrick Plasma, PDC-32G) for 2 minutes at high RF power and were immediately incubated at 37° C. with 0.5 mg/mL biotinylated gelatin for 24 hours. After three washes with PBS, the cover glasses were incubated with microbial transglutaminase (0.001 unit/mL in 20 mM Tris-HCl and 150 mM NaCl, pH 8; Sigma-Aldrich SAE0159) at 37° C. for 24 hours to crosslink the gelatin coating and enhance phSC cell attachment on the substrate. Following three additional washes with PBS, the cover glasses were UV sterilized in a biosafety cabinet for 1 hour. Carboxyl ferromagnetic particles (4.0-4.9 μm, Spherotech, Inc. CFM-40-10) were vortexed and added to the substrate. The particles were allowed to randomly sink onto the substrate to achieve an approximate density of 1 particle per 1000 μm^2. Non-adherent particles were removed by washing three times with PBS, followed by seeding phSC cells (passage 4-6; 7.5 k cells/cm^2). The cells were then cultured for 2 to 7 hours in DMEM supplemented with 1% FBS and 1×PSG at 37° C. with 5% CO2. The culture time was chosen as the minimum duration necessary for the cells to adopt a spread configuration similar to that observed in situ. Note that this culture time (2 to 7 hours) varied for the tested cell strains. Alternatively, in some experiments, apical-to-basal cell stretching was achieved by adding particles above fully spread cells. High-content screening of transcellular pores: Upon achieving full cell spreading over particles, cells were incubated with the first pore label for 5 minutes, followed by three washes with cell media. Subsequently, cells were either exposed to a magnetic field (as detailed below) or incubated solely with cell media for 10 minutes. Afterward, the cells were incubated with the second pore label (5 μg/mL; Streptavidin, Alexa Fluor 647 Conjugate, Invitrogen S32357) for 5 minutes, all at 37° C. The cells were then immediately washed three times with PBS, fixed with 4% formaldehyde for 15 minutes at room temperature, washed three times with PBS, permeabilized with 0.1% Triton X for 15 minutes, and stained with NucBlue Fixed Cell Ready Probes Reagent (6 drops/mL; Invitrogen R37606) and Alexa Fluor 555 Phalloidin (0.165 μM; Invitrogen R34055) for 1 hour at room temperature. Following these steps, cells were washed three times with PBS, the cover glass was detached from the rest of the 16-well chambered system, mounted on another cover glass using Prolong Gold Antifade Mountant (Invitrogen P10144), and stored in the dark until examination with a Leica DM6 B upright microscope system. Fluorescent and brightfield images were acquired using a 10× objective to generate tile scans for each well. To exclude cells near the well edges, a 4 mm diameter circle was delineated at the center of each image, and the analysis was restricted to the cells within this 4 mm circle. The number of cells, particles beneath cells, and pores were manually counted. Pores incidence rate was quantified as the number of pores associated with particles divided by the number of particles, multiplied by 100. […]

phSC cells [2] = assay: Cell stiffness measurement by atomic force microscopy (AFM)
Protocol: Cell stiffness measurement: SC cells were seeded on coverslips and grown to confluence. An MFD-3D AFM (Asylum Research, Santa Barbara, CA, USA) was used to make stiffness measurements using silicon nitride cantilevers with an attached borosilicate sphere (diameter=10 μm; nominal spring constant=0.1 N/m; Novascan Technologies, Inc., Ames, IA, USA). […] The indentation depth was limited to 400 nm to avoid substrate effects and the tip velocity was adjusted to 800 nm/s to avoid viscous effects^37. 5 measurements/cell were conducted, and at least 5 cells were measured/cell strain. Data from AFM measurements were fitted to the Hertz model to calculate the Young's Modulus of the cells.

phSC cells [3] = assay: Transcellular pore detection with particles placed on top of cells (apical-to-basal deformation); details: 10 μM, instead of magnetic field, FIGS. 14A-14B
Protocol: Substrate preparation and cell culture for transcellular pore formation using microparticles: Round cover glasses (12 mm in diameter) were employed for SEM imaging, while 16-well chambered cover glasses (16 wells per cover glass; Invitrogen C37000) were utilized for other experiments. Glass substrates underwent plasma treatment (Harrick Plasma, PDC-32G) for 2 minutes at high RF power and were immediately incubated at 37° C. with 0.5 mg/mL biotinylated gelatin for 24 hours. After three washes with PBS, the cover glasses were incubated with microbial transglutaminase (0.001 unit/mL in 20 mM Tris-HCl and 150 mM NaCl, pH 8; Sigma-Aldrich SAE0159) at 37° C. for 24 hours to crosslink the gelatin coating and enhance phSC cell attachment on the substrate. […]
High-content screening of transcellular pores: Upon achieving full cell spreading over particles, cells were incubated with the first pore label for 5 minutes, followed by three washes with cell media. […] The cells were then immediately washed three times with PBS, fixed with 4% formaldehyde for 15 minutes at room temperature, washed three times with PBS, permeabilized with 0.1% Triton X for 15 minutes, and stained with NucBlue Fixed Cell Ready Probes Reagent (6 drops/mL; Invitrogen R37606) and Alexa Fluor 555 Phalloidin (0.165 μM; Invitrogen R34055) for 1 hour at room temperature. […]

phSC cells [4] = assay: Cell area after treatment (fluorescent images of actin network and nuclei); details: Y-27632 treatments; nSC74, nSC75, nSC82, nSC89; 2-way ANOVA; FIGS. 12A-12B
Protocol: Treatment with Y-27632 ROCK inhibitor: Cells were seeded above microparticles in 16-well chambered slides in DMEM supplemented with 10% FBS, 1×PSG and allowed to spread for 3.5 hours at 37° C. with 5% CO2. Subsequently, the cells were incubated with 10 μM Y-27632 (Sigma, Y0503) in DMEM supplemented with 1% FBS, 1×PSG for 30 minutes, followed by the first pore label for 5 minutes. Following incubation, the cells were washed, fixed, stained for nuclei and actin filaments, and imaged as described in the section titled “High-content screening of transcellular pores.”

[5] = primary human SC cells, summary statement without cell strain

SMILES | pore formation (phSC cells [1]; SIP treatment, nSC74, FIG. 13B) | pore formation (phSC cells [1]; SIP treatment, nSC75 and nSC89, FIG. 13B) | pore formation (phSC cells [1]; [5]) | cell stiffness (phSC cells [2]; SIP treatment, nSC74, FIG. 13A) | cell stiffness (phSC cells [2]; SIP treatment, nSC75 and nSC89, FIG. 13A) | transcellular pores at particle locations (phSC cells [3]) | particle-induced pore formation (phSC cells [1]; Y-27632 treatment, four normal cell strains nSC74, nSC75, nSC82, nSC89, FIG. 6D) | cell stiffness (phSC cells [2]; Y-27632 treatment, four normal cell strains nSC74, nSC75, nSC82, nSC89, FIG. 6C) | cell area (phSC cells [4])
CCCCCCCCCCCCC/C=C/[C@@H](O)[C@@H](N)COP(=O)(O)O [SIP, sphingosine-1-phosphate] | did not have a significant effect; also recorded: did not affect | decreased pore formation; also recorded: decrease | decreased pore formation | did not have a significant effect; also recorded: did not affect | increased cell stiffness; also recorded: significant increase | – | – | – | –
C[C@@H](N)[C@H]1CC[C@H](C(=O)Nc2ccncc2)CC1 [Y-27632] | – | – | increased pore formation | – | – | did not induce transcellular pores; also recorded: failed to induce transcellular pores | increased pore formation in a dose-dependent manner | decreased cell stiffness | did not significantly affect; also recorded: no significant effect
